Drawing on patent publication US20090203577A1 (EXELIXIS, INC., priority 2005, published 2009), this text covers EC50 and Emax for ten compounds.

By EC50 is commonly meant the concentration at which the effect is half-maximal.

The target in this assay is T1, human farnesoid X receptor (Homo sapiens, UniProt Q96RI1).
T1 construct: CMX-farnesoid X receptor (full length human farnesoid X receptor); expressed in transfected cells; host or cells: CV-1 African Green Monkey Kidney cells
T1 sequence (Q96RI1 1-472 isoform Q96RI1-2): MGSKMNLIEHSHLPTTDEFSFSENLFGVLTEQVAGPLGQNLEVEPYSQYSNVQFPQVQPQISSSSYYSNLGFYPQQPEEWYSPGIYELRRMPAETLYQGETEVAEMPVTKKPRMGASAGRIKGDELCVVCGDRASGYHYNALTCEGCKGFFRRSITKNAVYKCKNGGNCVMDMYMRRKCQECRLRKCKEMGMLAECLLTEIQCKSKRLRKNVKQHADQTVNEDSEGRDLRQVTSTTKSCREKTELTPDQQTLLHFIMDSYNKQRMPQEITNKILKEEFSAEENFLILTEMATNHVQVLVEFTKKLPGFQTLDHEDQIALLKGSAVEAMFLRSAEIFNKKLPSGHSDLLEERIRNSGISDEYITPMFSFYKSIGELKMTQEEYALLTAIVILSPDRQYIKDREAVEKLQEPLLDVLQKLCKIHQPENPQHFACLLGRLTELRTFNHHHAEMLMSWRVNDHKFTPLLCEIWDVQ
T1 sequence (P19793 1-462 partner): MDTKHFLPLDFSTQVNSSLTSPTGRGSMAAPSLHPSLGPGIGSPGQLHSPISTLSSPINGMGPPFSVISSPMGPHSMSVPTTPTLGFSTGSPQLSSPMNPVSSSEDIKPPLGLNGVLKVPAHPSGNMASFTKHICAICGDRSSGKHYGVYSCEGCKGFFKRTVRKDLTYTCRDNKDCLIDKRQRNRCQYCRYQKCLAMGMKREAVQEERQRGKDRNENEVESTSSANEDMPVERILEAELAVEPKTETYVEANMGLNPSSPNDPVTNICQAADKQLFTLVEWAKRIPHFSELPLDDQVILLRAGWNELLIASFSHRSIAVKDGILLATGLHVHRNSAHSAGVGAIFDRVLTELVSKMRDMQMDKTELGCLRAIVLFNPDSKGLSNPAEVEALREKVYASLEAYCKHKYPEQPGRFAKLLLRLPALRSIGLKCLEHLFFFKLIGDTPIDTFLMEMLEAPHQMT
Briefly: FXR in vitro assays (farnesoid X receptor/ECREx7 co-transfection assay, TR-FRET assay), Table I. It is filed as cell-based. The settings on record: for EC50: agonist activity, one or more of the in vitro assays, read-out: EC50; for Emax: read-out: % Efficacy. On the procedure:
The basic co-transfection protocol for measuring the farnesoid X receptor activity is as follows. CV-1 African Green Monkey Kidney cells were plated 24 hours before transfection to achieve approximately 70-80 percent confluency. […] The assay was allowed to continue for an additional 18-20 hours, after which the cells were lysed, with lysis buffer (1% triton X 100, 10% glycerol, 5 mM Dithiothreitol, 1 mM EGTA, 25 mM Tricine, pH 7.8) and the luciferase activity measured in the presence of Luciferase assay buffer (0.73 mM ATP, 22.3 mm Tricine, 0.11 mM EGTA, 0.55 mM Luciferin, 0.15 mM Coenzyme A, 0.5 mM HEPES, 10 mM Magnesium sulphatc) on a standard luminometer plate reader (PE Biosystems, NorthStar Reader), using recommended operating instructions and conditions.
The dose response curves are generated from an 8 point curve with concentrations differing by ½ LOG units. Each point represents the average of 4 wells of data from a 384 well plate. A curve for the data is generated by using the equation:
Y=Bottom+(Top−Bottom)/(1+10̂((Log EC50−X)*HillSlope))
The EC50/IC50 is therefore defined as the concentration at which an agonist or antagonist elicits a response that is half way between the Top (maximum) and Bottom (baseline) values. The EC50/IC50 values represented are the averages of at least 3 independent experiments.

Molecules are shown by their SMILES. Some results are limits rather than exact numbers.

Consider `CC(C)OC(=O)C1=CN(C(=O)c2ccc(CN(C)C)cc2)CC(C)(C)c2c1[nH]c1ccccc21` [Example 107, 1-methylethyl 3-({4-[(dimethylamino)methyl]phenyl}carbonyl)-1,1-dimethyl-1,2,3,6-tetrahydroazepino[4,5-b]indole-5-carboxylate], for which the EC50 is 1000 to 10000 nM and the Emax is above 100%.
The corresponding values for `CC1(C)CN(C(=O)c2ccc(F)c(F)c2)C=C(C(=O)NC(CO)CO)c2[nH]c3ccccc3c21` [Example 163, 3-[(3,4-difluorophenyl)carbonyl]-N-[2-hydroxy-1-(hydroxymethyl)ethyl]-1,1-dimethyl-1,2,3,6-tetrahydroazepino[4,5-b]indole-5-carboxamide] are 1000 to 10000 nM and above 100%.
`CC(C)OC(=O)C1=CN(C(=O)c2cccc(OCCN3CCOCC3)c2)CC(C)(C)c2c1[nH]c1ccccc21` [Example 160, 1-methylethyl 1,1-dimethyl-3-({3-[(2-morpholin-4-ylethyl)oxy]phenyl}carbonyl)-1,2,3,6-tetrahydroazepino[4,5-b]indole-5-carboxylate]: the Emax was above 100%.
Turning to `CC(C)OC(=O)C1=CN(C(=O)c2cccc(CN3CCN(C(=O)C4CC4)CC3)c2)CC(C)(C)c2c1[nH]c1ccccc21` [Example 173, 1-methylethyl 3-[(3-{[4-(cyclopropylcarbonyl)piper-azin-1-yl]methyl}phenyl)carbonyl]-1,1-dimethyl-1,2,3,6-tetrahydroazepino[4,5-b]indole-5-carboxylate], the concentration giving a half-maximal response (EC50) lay in the range of 100 to 1000 nM and the Emax was above 100%.
Taken in the same sequence, the figures for `CCN(CC)CCOc1ccc2c3c([nH]c2c1)C(C(=O)OC(C)C)=CN(C(=O)c1ccc(F)c(F)c1)CC3(C)C` [Example 103, 1-methylethyl 8-{[2-(diethylamino)ethyl]oxy}-3-[(3,4-difluorophenyl)carbonyl]-1,1-dimethyl-1,2,3,6-tetrahydroazepino[4,5-b]indole-5-carboxylate] were 100 to 1000 nM and below 40%.
The corresponding values for `CCN(CC)CCCOc1cccc(C(=O)N2C=C(C(=O)OC(C)C)c3[nH]c4ccccc4c3C(C)(C)C2)c1` [Example 188, 1-methylethyl 3-[(3-{[3-(diethylamino)propyl]oxy}phenyl)carbonyl]-1,1-dimethyl-1,2,3,6-tetrahydroazepino[4,5-b]indole-5-carboxylate] are 1000 to 10000 nM and above 100%.
`CC(C)OC(=O)C1=CN(C(=O)C2CCCCCC2)CC(C)(C)c2c1[nH]c1ccccc21` [Example 12, 1-Methylethyl 3-[(3,4-Difluorophenyl)Carbonyl]-8-[(f{[2-(Dimethylamino)Ethyl]amino}Carbonyl)Oxy]-1,1-Dimethyl-1,2,3,6-tetrahydroazepino[4,5-b]Indole-5-Carboxylate]: the EC50 lay within 10 to 100 nM and the Emax was above 100%.
Taken in the same sequence, the figures for `Cc1ccc(C(=O)N2C=C(C(=O)OC(C)C)c3[nH]c4ccccc4c3C(C)(C)C2)cc1` [Example 87, 1-methylethyl 1,1-dimethyl-3-[(4-methylphenyl)carbonyl]-1,2,3,6-tetrahydroazepino[4,5-b]indole-5-carboxylate] were 10 to 100 nM and above 100%.
Turning to `CC(C)OC(=O)C1=CN(C(=O)N2CCN(C)CC2)CC(C)(C)c2c1[nH]c1ccc(F)cc21` [Example 32, 1-methylethyl 9-fluoro-1,1-dimethyl-3-[(4-methylpiperazin-1-yl)carbonyl]-1,2,3,6-tetrahydroazepino[4,5-b]indole-5-carboxylate], the EC50 is 100 to 1000 nM and the Emax is above 100%.
Taken in the same sequence, the figures for `CC(C)OC(=O)C1=CN(C(=O)c2ccc(F)cc2F)CC(C)(C)c2c1[nH]c1ccccc21` [Example 73, 1-methylethyl 3-[(2,4-difluorophenyl)carbonyl]-1,1-dimethyl-1,2,3,6-tetrahydroazepino[4,5-b]indole-5-carboxylate] were 1 to 10 nM and above 100%.
